The source of these data is US20260248780A1, “PHARMACEUTICAL COMPOSITIONS” (Birdie Biopharmaceuticals, Inc., priority 2017, published 2026).

Counter-ions that a name gives are not always drawn. Marks after values point to notes of the source that are not given here.

What all share (type): physicochemical
Series [1] can be described thus: Kinetic solubility in water and bio-relevant media (SGF, FaSSIF, FeSSIF) at RT. The settings on record: for solubility kinetic: water and bio-relevant media (SGF, FaSSIF, FeSSIF), water/bio-relevant media. Here is the method: After being centrifuged and separated using 0.45 μm Nylon filter, filtrates were collected for HPLC and pH test, and wet cakes for XRPD characterization. If clear solutions were obtained after 24 hours, accurate concentration and purity were measured for the solutions.

A short description of series [2]: Inter-conversion of crystal forms via storage and heating experiments.
The nature of series [3]: Solubility estimation in solvents at RT. The settings on record: organic solvent or mixture, thermodynamic from solid.
Experimental: Solubility of Type A was estimated in nine solvents at RT. […] Approximately 2 mg solids were added into a 3-mL glass vial.
Where [4] appears, read: water and bio-relevant media (SGF, FaSSIF, FeSSIF) at RT.

Regarding `CCOCc1nc2c(N)nc3ccccc3c2n1CC(C)(C)O` [Adipate Type A, resiquimod], the “FC: Solid form change” value in series [1] (FaSSIF, RT, 1 hr) was “No”; in series [1] (Water, RT, 1 hr), “No”; in series [1] (Water, RT, 2 hrs), “No”; in series [1] (Water, RT, 4 hrs), “No”; in series [1] (Water, RT, 24 hrs), “No”. The “S: Solubility” value in series [1] (FaSSIF, RT, 1 hr) is recorded as 4.3 mg/mL; in series [1] (FaSSIF, RT, 2 hrs), 4.5 mg/mL; in series [1] (FaSSIF, RT, 4 hrs), 4.6 mg/mL; in series [1] (FaSSIF, RT, 24 hrs), 4.5* mg/mL; in series [1] (SGF, RT, 1 hr) it was 4.7 mg/mL; in series [1] (SGF, RT, 2 hrs), “C (C: Clear)”. Moreover, the “S: Solubility” value in series [1] (SGF, RT, 4 hrs) is reported as “C (C: Clear)”; in series [1] (SGF, RT, 24 hrs) it was 4.7* mg/mL; in series [1] (Water, RT, 1 hr) it was 2.8 mg/mL; in series [1] (Water, RT, 2 hrs) it was 2.7 mg/mL; in series [1] (Water, RT, 4 hrs), 2.8 mg/mL; in series [1] (Water, RT, 24 hrs) it was 2.7 mg/mL. The “Kinetic Solubility at RT” value was >4.2 (bio-relevant mg/mL in series [1] (bio-relevant media) and ~2.7 (water) mg/mL in series [1] (water). Further, the “solubility compared with freebase Type A” value in series [1] (setting [4]) is recorded as “improved or comparable solubility”.

As for `CCOCc1nc2c(N)nc3ccccc3c2n1CC(C)(C)O` [Di-HCl salt Type A, resiquimod], the “S: Solubility” value in series [1] (FaSSIF, RT, 1 hr) is recorded as “C (C: Clear)”; in series [1] (FaSSIF, RT, 2 hrs) it was “C (C: Clear)”; in series [1] (FaSSIF, RT, 4 hrs), “C (C: Clear)”; in series [1] (FaSSIF, RT, 24 hrs), 3.9* mg/mL; in series [1] (FeSSIF, RT, 1 hr) it was “C (C: Clear)”; in series [1] (FeSSIF, RT, 2 hrs) it was “C (C: Clear)”. Besides, the “S: Solubility” value is given as “C (C: Clear)” in series [1] (FeSSIF, RT, 4 hrs); 3.9* mg/mL in series [1] (FeSSIF, RT, 24 hrs); “C (C: Clear)” in series [1] (SGF, RT, 1 hr); “C (C: Clear)” in series [1] (SGF, RT, 2 hrs); “C (C: Clear)” in series [1] (SGF, RT, 4 hrs); 3.9* mg/mL in series [1] (SGF, RT, 24 hrs). For the same compound, the “solubility compared with freebase Type A” value in series [1] (setting [4]) is given as “improved or comparable solubility”.

Turning to `CCOCc1nc2c(N)nc3ccccc3c2n1CC(C)(C)O` [Malate Type A, resiquimod], the “S: Solubility” value in series [1] (FaSSIF, RT, 1 hr) is “C (C: Clear)”; in series [1] (FaSSIF, RT, 2 hrs) it was “C (C: Clear)”; in series [1] (FaSSIF, RT, 4 hrs), “C (C: Clear)”; in series [1] (FaSSIF, RT, 24 hrs) it was 3.7* mg/mL; in series [1] (SGF, RT, 1 hr), “C (C: Clear)”; in series [1] (SGF, RT, 2 hrs), “C (C: Clear)”. The “S: Solubility” value in series [1] (SGF, RT, 4 hrs) is given as “C (C: Clear)”; in series [1] (SGF, RT, 24 hrs), 4.3* mg/mL; in series [1] (Water, RT, 1 hr), “C (C: Clear)”; in series [1] (Water, RT, 2 hrs), “C (C: Clear)”; in series [1] (Water, RT, 4 hrs), “C (C: Clear)”; in series [1] (Water, RT, 24 hrs), 3.7* mg/mL. Also, the “solubility compared with freebase Type A” value in series [1] (setting [4]) is “improved or comparable solubility”. Also, in series [1] (water), the kinetic solubility was greater than 3500 µg/mL.

For the compound `CCOCc1nc2c(N)nc3ccccc3c2n1CC(C)(C)O` [Maleate Type A, resiquimod], the “FC: Solid form change” value in series [1] (FaSSIF, RT, 1 hr) was “No”; in series [1] (FaSSIF, RT, 2 hrs) it was “No”; in series [1] (FaSSIF, RT, 4 hrs), “No”; in series [1] (FaSSIF, RT, 24 hrs), “No”; in series [1] (FeSSIF, RT, 1 hr), “No”; in series [1] (FeSSIF, RT, 2 hrs) it was “No”. Besides, the “FC: Solid form change” value was “No” in series [1] (FeSSIF, RT, 4 hrs); “No” in series [1] (FeSSIF, RT, 24 hrs); “No” in series [1] (SGF, RT, 1 hr); “No” in series [1] (SGF, RT, 2 hrs); “No” in series [1] (SGF, RT, 4 hrs); “No” in series [1] (SGF, RT, 24 hrs). The “FC: Solid form change” value in series [1] (Water, RT, 1 hr) is “No”; in series [1] (Water, RT, 2 hrs), “No”; in series [1] (Water, RT, 4 hrs), “No”; in series [1] (Water, RT, 24 hrs), “No”. In addition, the “S: Solubility” value is listed as 2.2 mg/mL in series [1] (FaSSIF, RT, 1 hr); 2.3 mg/mL in series [1] (FaSSIF, RT, 2 hrs); 2.4 mg/mL in series [1] (FaSSIF, RT, 4 hrs); 2.3 mg/mL in series [1] (FaSSIF, RT, 24 hrs); 1.4 mg/mL in series [1] (SGF, RT, 1 hr); 1.5 mg/mL in series [1] (SGF, RT, 2 hrs). In addition, the “S: Solubility” value in series [1] (SGF, RT, 4 hrs) came out at 1.6 mg/mL; in series [1] (SGF, RT, 24 hrs), 1.5 mg/mL; in series [1] (Water, RT, 1 hr), 0.93 mg/mL; in series [1] (Water, RT, 2 hrs), 0.98 mg/mL; in series [1] (Water, RT, 4 hrs) it was 1.1 mg/mL; in series [1] (Water, RT, 24 hrs), 0.97 mg/mL. Further, in series [1] (SGF, FaSSIF, and FeSSIF at RT), the “solubility compared with freebase Type A” value is recorded as “decreased solubility”. Moreover, the “Kinetic Solubility at RT” value is reported as ~1.5 (bio-relevant mg/mL in series [1] (bio-relevant media) and ~1.0 (water) mg/mL in series [1] (water). Further, the “form change after kinetic solubility evaluation” value in series [1] (remaining solids after suspended 24 hours, XRPD) is recorded as “no form change”.

Take `CCOCc1nc2c(N)nc3ccccc3c2n1CC(C)(C)O` [Mono-HCl salt Type A, resiquimod]: the solubility at 24 h in series [1] (FaSSIF, thermodynamic from solid, FaSSIF, RT, 24 hrs, read-out: S: Solubility) worked out at 4500 µg/mL. In addition, the “S: Solubility” value in series [1] (FeSSIF, RT, 1 hr) is “C (C: Clear)”; in series [1] (FeSSIF, RT, 2 hrs) it was “C (C: Clear)”; in series [1] (FeSSIF, RT, 4 hrs), “C (C: Clear)”; in series [1] (FeSSIF, RT, 24 hrs), 4.6* mg/mL; in series [1] (SGF, RT, 1 hr), “C (C: Clear)”; in series [1] (SGF, RT, 2 hrs), “C (C: Clear)”. Besides, the “S: Solubility” value was “C (C: Clear)” in series [1] (SGF, RT, 4 hrs) and 4.7* mg/mL in series [1] (SGF, RT, 24 hrs). For the same compound, in series [1] (setting [4]), the “solubility compared with freebase Type A” value is on record as “improved or comparable solubility”. Further, in series [1] (water, summary), the kinetic solubility was greater than 3800 µg/mL.

Turning to `CCOCc1nc2c(N)nc3ccccc3c2n1CC(C)(C)O` [Phosphate Type A, resiquimod], the “S: Solubility” value in series [1] (FaSSIF, RT, 1 hr) is reported as “C (C: Clear)”; in series [1] (FaSSIF, RT, 2 hrs), “C (C: Clear)”; in series [1] (FaSSIF, RT, 4 hrs), “C (C: Clear)”; in series [1] (FaSSIF, RT, 24 hrs), 4.3* mg/mL; in series [1] (SGF, RT, 1 hr), “C (C: Clear)”; in series [1] (SGF, RT, 2 hrs), “C (C: Clear)”. For the same compound, the “S: Solubility” value in series [1] (SGF, RT, 4 hrs) was “C (C: Clear)”; in series [1] (SGF, RT, 24 hrs), 4.0* mg/mL; in series [1] (Water, RT, 1 hr), “C (C: Clear)”; in series [1] (Water, RT, 2 hrs), “C (C: Clear)”; in series [1] (Water, RT, 4 hrs), “C (C: Clear)”; in series [1] (Water, RT, 24 hrs) it was 3.9* mg/mL. Further, the “solubility compared with freebase Type A” value in series [1] (setting [4]) is “improved or comparable solubility”.

Take `CCOCc1nc2c(N)nc3ccccc3c2n1CC(C)(C)O` [Sulfate Type A, resiquimod]: the “S: Solubility” value in series [1] (FaSSIF, RT, 1 hr) is recorded as “C (C: Clear)”; in series [1] (FaSSIF, RT, 2 hrs), “C (C: Clear)”; in series [1] (FaSSIF, RT, 4 hrs), “C (C: Clear)”; in series [1] (FaSSIF, RT, 24 hrs), 4.0* mg/mL; in series [1] (FeSSIF, RT, 1 hr), “C (C: Clear)”; in series [1] (SGF, RT, 1 hr) it was “C (C: Clear)”. The “S: Solubility” value in series [1] (SGF, RT, 2 hrs) is listed as “C (C: Clear)”; in series [1] (SGF, RT, 4 hrs) it was “C (C: Clear)”; in series [1] (SGF, RT, 24 hrs), 3.9* mg/mL; in series [1] (Water, RT, 1 hr) it was “C (C: Clear)”; in series [1] (Water, RT, 2 hrs), “C (C: Clear)”; in series [1] (Water, RT, 4 hrs), “C (C: Clear)”. In addition, the “S: Solubility” value in series [1] (Water, RT, 24 hrs) was 4.1* mg/mL. Besides, the “solubility compared with freebase Type A” value in series [1] (setting [4]) was “improved or comparable solubility”.

Consider `CCOCc1nc2c(N)nc3ccccc3c2n1CC(C)(C)O` [Type C, resiquimod], for which the “form conversion on drying” value in series [2] (dried at ambient conditions overnight) is “converted to Type A”.

With `CCOCc1nc2c(N)nc3ccccc3c2n1CC(C)(C)O` [Type F, resiquimod], in series [2] (storage at ambient conditions for 2 days), the “form conversion on storage” value is given as “converted to Type A”.

On to `CCOCc1nc2c(N)nc3ccccc3c2n1CC(C)(C)O` [sulfate Type A (807919-21-A)], for which the solubility in series [3] (ACN) is less than 2200 µg/mL; in series [3] (DMAc), greater than 40000 µg/mL; in series [3] (DMSO) it was greater than 44000 µg/mL; in series [3] (EtOAc), less than 2200 µg/mL; in series [3] (IPAc) it was less than 2000 µg/mL; in series [3] (MEK), less than 2000 µg/mL. In addition, the solubility was less than 2100 µg/mL in series [3] (MIBK); less than 2300 µg/mL in series [3] (MTBE); greater than 44000 µg/mL in series [3] (NMP); less than 2200 µg/mL in series [3] (anisole); less than 2100 µg/mL in series [3] (n-heptane); less than 2000 µg/mL in series [3] (toluene).
